From US12581252B2, “Substituted pyrrolo[3,4-b]pyridines as PI3K-α inhibitors” (Relay Therapeutics, Inc., priority 2020, dated 2026) come the findings set out here.

One assay addresses H1047R PIK3CA enzyme (Homo sapiens, UniProt P42336, H1047R). The experiment in a line: ADP-Glo Biochemical PIK3CA Kinase Assay.
A further assay is described as follows: cells. To be noted: Homo sapiens, MCF-10A, read-out: MCF10A IC50.

SMILES strings stand for the structures.

Chain of H1047R PIK3CA enzyme (P42336 whole entry H1047R): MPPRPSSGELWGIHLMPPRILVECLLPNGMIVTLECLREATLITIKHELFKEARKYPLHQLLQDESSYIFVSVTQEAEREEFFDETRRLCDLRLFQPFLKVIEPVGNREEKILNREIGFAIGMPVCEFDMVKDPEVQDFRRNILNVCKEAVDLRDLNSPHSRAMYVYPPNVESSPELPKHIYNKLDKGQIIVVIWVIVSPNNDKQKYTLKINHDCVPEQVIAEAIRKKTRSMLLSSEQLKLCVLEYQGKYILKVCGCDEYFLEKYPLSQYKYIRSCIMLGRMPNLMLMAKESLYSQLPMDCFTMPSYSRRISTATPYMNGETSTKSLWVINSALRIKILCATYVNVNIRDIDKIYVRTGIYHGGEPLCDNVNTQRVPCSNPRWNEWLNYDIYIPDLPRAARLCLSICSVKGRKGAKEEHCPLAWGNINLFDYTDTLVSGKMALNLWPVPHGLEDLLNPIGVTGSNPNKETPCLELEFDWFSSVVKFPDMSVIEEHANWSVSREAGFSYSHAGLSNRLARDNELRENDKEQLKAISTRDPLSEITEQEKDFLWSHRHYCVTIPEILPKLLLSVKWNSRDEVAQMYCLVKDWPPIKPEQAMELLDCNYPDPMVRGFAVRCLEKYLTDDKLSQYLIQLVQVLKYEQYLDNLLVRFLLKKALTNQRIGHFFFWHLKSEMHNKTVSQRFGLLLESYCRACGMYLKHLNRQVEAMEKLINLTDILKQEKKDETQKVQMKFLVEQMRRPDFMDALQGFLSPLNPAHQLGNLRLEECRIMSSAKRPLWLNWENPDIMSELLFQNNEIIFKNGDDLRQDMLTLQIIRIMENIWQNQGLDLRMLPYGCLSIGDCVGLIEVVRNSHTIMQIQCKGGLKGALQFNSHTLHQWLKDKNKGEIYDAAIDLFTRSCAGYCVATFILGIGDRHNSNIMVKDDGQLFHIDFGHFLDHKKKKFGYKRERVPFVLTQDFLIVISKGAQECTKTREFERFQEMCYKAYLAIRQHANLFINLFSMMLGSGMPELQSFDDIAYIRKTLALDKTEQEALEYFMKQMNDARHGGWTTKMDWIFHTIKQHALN
Chain of H1047R PIK3CA enzyme (P27986 whole entry partner): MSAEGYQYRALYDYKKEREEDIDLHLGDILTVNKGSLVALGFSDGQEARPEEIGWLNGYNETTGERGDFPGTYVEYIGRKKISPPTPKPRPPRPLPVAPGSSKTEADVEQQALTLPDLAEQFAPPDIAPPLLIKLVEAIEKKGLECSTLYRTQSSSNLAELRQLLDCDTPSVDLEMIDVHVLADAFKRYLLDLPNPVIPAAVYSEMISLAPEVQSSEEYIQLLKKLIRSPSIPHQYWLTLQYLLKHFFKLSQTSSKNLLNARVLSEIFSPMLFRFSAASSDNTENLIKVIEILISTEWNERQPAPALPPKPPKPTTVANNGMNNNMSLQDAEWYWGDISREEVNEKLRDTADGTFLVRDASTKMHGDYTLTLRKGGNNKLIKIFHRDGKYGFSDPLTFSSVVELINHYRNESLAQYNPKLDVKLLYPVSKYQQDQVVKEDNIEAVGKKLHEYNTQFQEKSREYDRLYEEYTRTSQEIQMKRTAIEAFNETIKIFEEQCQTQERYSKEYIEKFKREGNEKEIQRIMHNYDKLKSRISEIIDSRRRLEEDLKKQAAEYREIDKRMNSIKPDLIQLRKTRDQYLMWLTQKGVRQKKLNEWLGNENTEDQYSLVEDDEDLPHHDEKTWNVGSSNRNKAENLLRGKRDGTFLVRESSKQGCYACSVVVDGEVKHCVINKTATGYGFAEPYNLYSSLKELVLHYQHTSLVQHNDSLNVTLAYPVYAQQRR

For `C[S+]([O-])Cc1cc(NC(=O)c2cc(F)cc(C(F)(F)F)c2)c2c(c1)C(=O)NC2c1cc(F)ccc1Cl` (centres unmarked) [Compound I-962], the figures for the IC50 against H1047R PIK3CA enzyme and in “cells” were at most 100 nM and under 1000 nM, respectively.

In the case of `Cc1coc(Nc2cc(NC(=O)c3cc(F)cc(C(F)(F)F)c3)c3c(c2)C(=O)NC3c2cc(F)ccc2Cl)n1` (centres unmarked) [Compound I-964], the values for the IC50 on H1047R PIK3CA enzyme and in “cells” were at most 100 nM and under 1000 nM, respectively.

Turning to `Cn1cc(Nc2cc(NC(=O)c3cc(F)cc(C(F)(F)F)c3)c3c(c2)C(=O)NC3c2cc(F)ccc2Cl)nn1` (centres unmarked) [Compound I-965], the figures for the IC50 at H1047R PIK3CA enzyme and in the assay “cells” were at most 100 nM and under 1000 nM, respectively.

With `Cc1nc(Nc2cc(NC(=O)c3cc(F)cc(C(F)(F)F)c3)c3c(c2)C(=O)NC3c2cc(F)ccc2Cl)oc1C` (centres unmarked) [Compound I-966], the IC50 (in general, the concentration that gives 50% inhibition) at H1047R PIK3CA enzyme was at most 100 nM; in “cells” it was under 1000 nM.

With `O=C(Nc1cc(-c2cncnc2)cc2c1C(c1cc(F)ccc1Cl)NC2=O)c1cc(F)cc(C(F)(F)F)c1` (centres unmarked) [Compound I-967], the IC50 on H1047R PIK3CA enzyme is at most 100 nM; in the assay “cells”, under 1000 nM.

Regarding `CC(C)(O)Cn1cc(-c2cc(NC(=O)c3cc(F)cc(C(F)(F)F)c3)c3c(c2)C(=O)NC3c2cc(F)ccc2Cl)cn1` (centres unmarked) [Compound I-968], the IC50 at H1047R PIK3CA enzyme is at most 100 nM; in the assay “cells” it was under 1000 nM.

For the compound `O=C(Nc1cc(-c2cnc3ncnn3c2)cc2c1C(c1cc(F)ccc1Cl)NC2=O)c1cc(F)cc(C(F)(F)F)c1` (centres unmarked) [Compound I-969], the IC50 at H1047R PIK3CA enzyme is at most 100 nM; in the assay “cells”, under 1000 nM.

As for `O=C(Nc1cc(-c2cc3ncccc3[nH]2)cc2c1C(c1cc(F)ccc1Cl)NC2=O)c1cc(F)cc(C(F)(F)F)c1` (centres unmarked) [Compound I-970], the results for the IC50 on H1047R PIK3CA enzyme and in the assay “cells” were at most 100 nM and under 1000 nM, respectively.

Regarding `O=C(Nc1cc(-c2cc3ccccc3[nH]2)cc2c1C(c1cc(F)ccc1Cl)NC2=O)c1cc(F)cc(C(F)(F)F)c1` (centres unmarked) [Compound I-971], the IC50 against H1047R PIK3CA enzyme is at most 100 nM; in “cells”, under 1000 nM.

Take `O=C(Nc1cc(-c2cc3cccnc3[nH]2)cc2c1C(c1cc(F)ccc1Cl)NC2=O)c1cc(F)cc(C(F)(F)F)c1` (centres unmarked) [Compound I-972]: the results for the IC50 against H1047R PIK3CA enzyme and in the assay “cells” were at most 100 nM and under 1000 nM, respectively.

Turning to `Cn1ncnc1Nc1cc(NC(=O)c2cc(F)cc(C(F)(F)F)c2)c2c(c1)C(=O)NC2c1cc(F)ccc1Cl` (centres unmarked) [Compound I-974], the IC50 is at most 100 nM at H1047R PIK3CA enzyme and under 1000 nM in “cells”.

For the compound `Cn1cnc(Nc2cc(NC(=O)c3cc(F)cc(C(F)(F)F)c3)c3c(c2)C(=O)NC3c2cc(F)ccc2Cl)n1` (centres unmarked) [Compound I-976], the half-maximal inhibitory concentration (IC50) was at most 100 nM against H1047R PIK3CA enzyme and under 1000 nM in the assay “cells”.

As to `O=C1NC(c2cc(F)ccc2Cl)c2c(Nc3nccc4c(C(F)(F)F)cc(F)cc34)cc(Br)cc21` (centres unmarked) [Compound I-978], the IC50 against H1047R PIK3CA enzyme is at most 100 nM; in the assay “cells” it was under 1000 nM.

Take `N#Cc1ncc(-c2cc(NC(=O)c3cc(F)cc(C(F)(F)F)c3)c3c(c2)C(=O)N[C@@H]3c2cc(F)ccc2Cl)cn1` [Compound I-980]: the IC50 on H1047R PIK3CA enzyme was at most 100 nM; in “cells”, under 1000 nM.

As to `O=C1NCc2cc(-c3cc(NC(=O)c4cc(F)cc(C(F)(F)F)c4)c4c(c3)C(=O)NC4c3cc(F)ccc3Cl)ccc2O1` (centres unmarked) [Compound I-981], the IC50 against H1047R PIK3CA enzyme is at most 100 nM; in the assay “cells” it was under 1000 nM.

`O=C1Cc2ccc(-c3cc(NC(=O)c4cc(F)cc(C(F)(F)F)c4)c4c(c3)C(=O)NC4c3cc(F)ccc3Cl)cc2N1` (centres unmarked) [Compound I-982]: the IC50 is at most 100 nM on H1047R PIK3CA enzyme and under 1000 nM in “cells”.

Regarding `O=C(Nc1cc(-c2cccn3nccc23)cc2c1C(c1cc(F)ccc1Cl)NC2=O)c1cc(F)cc(C(F)(F)F)c1` (centres unmarked) [Compound I-983], the IC50 against H1047R PIK3CA enzyme was at most 100 nM; in the assay “cells” it was under 1000 nM.

Take `Cc1nc2ccc(-c3cc(NC(=O)c4cc(F)cc(C(F)(F)F)c4)c4c(c3)C(=O)NC4c3cc(F)ccc3Cl)cc2o1` (centres unmarked) [Compound I-984]: the half-maximal inhibitory concentration (IC50) is at most 100 nM against H1047R PIK3CA enzyme and under 1000 nM in “cells”.

Regarding `Cc1ncncc1-c1cc(NC(=O)c2cc(F)cc(C(F)(F)F)c2)c2c(c1)C(=O)NC2c1cc(F)ccc1Cl` (centres unmarked) [Compound I-985], the figures for the IC50 against H1047R PIK3CA enzyme and in “cells” were at most 100 nM and under 1000 nM, respectively.
